Here are results for three compounds from publication PMC3288262 (Bioorganic & medicinal chemistry letters, 2012).

Several values for one entry are separate records, joined by “and”; a condition that tells them apart may be missing. Equal entries are not always repeated. Marks after values point to notes of the source that are not given here. Starred links: 1 amine or outer side, 2 acyl side, 3 side chain; linkers in the order of their positions; H or OH if unused. Non-standard residues stand in square brackets, D forms with d. Residues, ends and D or L forms follow the SMILES beside them. Bcp = 4'-[N-((4'-phenyl)phenethyl)carboxamido]phenylalanine, O=C(NCCc1ccc(-c2ccccc2)cc1)c1ccc(C[C@H](N[*:1])C(=O)[*:2])cc1; Tic = O=C(O)[C@@H]1Cc2ccccc2CN1

In experiment [1] the target is μ opioid receptors (Rattus norvegicus, UniProt P33535). The settings on record: read-out: Ki^μ; [3H]DAMGO displacement, rat brain membranes; ref [10]; cited from earlier work.
Experiment [2] addresses δ opioid receptor (mouse vas deferens, δ receptor-representative) (Mus musculus, UniProt P32300). Particulars: read-out: MVD IC50; agonist potency; ref [10]; cited from earlier work.
Experiment [3] deals with δ opioid receptors (Rattus norvegicus, UniProt P33533). Particulars: ref [10], cited from earlier work.
Experiment [4] concerns μ opioid receptor (guinea pig ileum). Particulars: partial agonist, IC40 given in IC50 column; ref [10]; cited from earlier work.
Experiment [5] concerns the target human δ opioid receptor (Homo sapiens, UniProt P41143). It is filed as biochemical. The settings on record: mean of 3–6 determinations ± SEM; for [35S]GTPγS binding ED50: HEK293 cells, human δ opioid receptor.
The subject of experiment [6] is μ opioid receptor (guinea pig ileum). In words: guinea pig ileum. Particulars: read-out: GPI IC50; agonist potency; P.A. = partial agonist.

human δ opioid receptor, sequence (P41143 whole entry): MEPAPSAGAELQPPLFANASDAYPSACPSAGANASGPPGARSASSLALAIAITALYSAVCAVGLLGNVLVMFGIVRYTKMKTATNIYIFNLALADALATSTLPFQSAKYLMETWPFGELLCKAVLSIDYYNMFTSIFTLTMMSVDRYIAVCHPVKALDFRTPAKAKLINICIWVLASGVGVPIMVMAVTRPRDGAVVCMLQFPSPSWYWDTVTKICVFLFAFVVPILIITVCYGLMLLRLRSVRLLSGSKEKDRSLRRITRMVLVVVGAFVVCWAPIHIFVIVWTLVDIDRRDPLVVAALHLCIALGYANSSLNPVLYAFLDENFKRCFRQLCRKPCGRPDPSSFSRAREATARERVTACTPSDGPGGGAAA
δ opioid receptors, sequence (P33533 whole entry): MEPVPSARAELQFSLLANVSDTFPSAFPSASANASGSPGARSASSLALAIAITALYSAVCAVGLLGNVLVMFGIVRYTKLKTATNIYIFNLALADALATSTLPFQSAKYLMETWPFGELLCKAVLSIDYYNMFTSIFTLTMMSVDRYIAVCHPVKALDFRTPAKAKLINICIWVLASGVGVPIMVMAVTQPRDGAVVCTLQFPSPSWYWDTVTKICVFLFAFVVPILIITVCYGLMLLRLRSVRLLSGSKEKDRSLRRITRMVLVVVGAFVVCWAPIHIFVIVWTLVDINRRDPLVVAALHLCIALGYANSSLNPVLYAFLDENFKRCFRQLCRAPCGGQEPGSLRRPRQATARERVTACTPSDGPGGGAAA
μ opioid receptors, sequence (P33535 whole entry): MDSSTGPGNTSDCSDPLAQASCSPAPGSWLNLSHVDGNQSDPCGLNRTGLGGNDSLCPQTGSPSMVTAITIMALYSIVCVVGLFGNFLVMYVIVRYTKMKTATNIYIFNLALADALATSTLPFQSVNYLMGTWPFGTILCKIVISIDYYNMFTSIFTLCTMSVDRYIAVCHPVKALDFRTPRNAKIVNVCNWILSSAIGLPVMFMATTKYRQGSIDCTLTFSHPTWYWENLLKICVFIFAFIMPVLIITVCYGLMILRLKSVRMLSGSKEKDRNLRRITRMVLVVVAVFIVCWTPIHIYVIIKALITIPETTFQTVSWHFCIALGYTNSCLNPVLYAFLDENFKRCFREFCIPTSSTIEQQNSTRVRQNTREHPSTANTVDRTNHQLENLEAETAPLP
δ opioid receptor (mouse vas deferens, δ receptor-representative), sequence (P32300 whole entry): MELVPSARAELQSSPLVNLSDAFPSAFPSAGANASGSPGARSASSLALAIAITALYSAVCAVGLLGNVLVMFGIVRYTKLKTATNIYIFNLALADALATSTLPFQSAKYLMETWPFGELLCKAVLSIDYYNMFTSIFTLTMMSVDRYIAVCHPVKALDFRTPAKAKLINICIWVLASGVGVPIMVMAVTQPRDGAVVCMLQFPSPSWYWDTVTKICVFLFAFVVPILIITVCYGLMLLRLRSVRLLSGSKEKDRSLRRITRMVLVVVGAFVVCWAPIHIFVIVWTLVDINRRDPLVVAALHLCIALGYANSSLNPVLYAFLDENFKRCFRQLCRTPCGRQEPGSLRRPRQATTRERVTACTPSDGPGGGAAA

For “H-Bcp-Tic-Phe-Phe-OH (H-[Bcp][Tic]FF-OH) [Compound 13]”, the inhibitory constant (Ki) is 87.7 ± 8 nM in experiment [1] and 0.605 ± 0.058 nM in experiment [3] (read-out: Ki^δ, [3H]DSLET displacement, rat brain membranes). Further, the IC50 in experiment [2] was 3.42 ± 0.36 nM.
H-Bcp-Tic-Phe-Phe-OH [Compound 13]: the “GPI IC40” value in experiment [4] was 223 ± 37 (IC40) ^d nM. Also, the “[35S]GTPγS binding ED50” value in experiment [5] amounted to 0.413 ± 0.015 nM. In addition, the “[35S]GTPγS binding efficacy e” value in experiment [5] (efficacy relative to DPDPE (e = 1.0)) is 0.678 and 0.678 ± 0.076. For the same compound, in experiment [3] (δ vs. μ receptor binding selectivity), the “Ki^μ/Ki^δ” value is reported as 145.
As for `N[C@@H](Cc1ccc(O)cc1)C(=O)N1Cc2ccccc2C[C@H]1C(=O)N[C@@H](Cc1ccccc1)C(=O)N[C@@H](Cc1ccccc1)C(=O)O` [TIPP, H-Tyr-Tic-Phe-Phe-OH, reference compound] (H-Y[Tic]FF-OH), the “[35S]GTPγS binding ED50” value in experiment [5] is given as “antagonist”. Besides, the IC50 in experiment [6] was over 10000 nM.
